Measured values from the NIST ThermoML archive (doi:10.1021/je060271a).
Several values for one entry are separate records, joined by “and”; a condition that tells them apart may be missing. Identical values can stand only once. ± gives the expanded uncertainty stated by the source.

Conditions: 283.14 K, Liquid, Vibrating tube method

CCCCCCC(=O)OCC(COC(=O)CCCCCC)(COC(=O)CCCCCC)COC(=O)CCCCCC [pentaerythritol tetraheptanoate]
mass density (2521.6 kPa): 987.2 ± 1.2 kg/m3
mass density (2536.4 kPa): 987.3 ± 1.2 kg/m3
mass density (2553.4 kPa): 987.3 ± 1.2 kg/m3
mass density (2568.1 kPa): 987.2 ± 1.2 kg/m3
mass density (2582.9 kPa): 987.4 ± 1.2 kg/m3
mass density (2600 kPa): 987.4 ± 1.2 kg/m3
mass density (2614.3 kPa): 987.4 ± 1.2 kg/m3
mass density (2628.5 kPa): 987.3 ± 1.2 kg/m3
mass density (2642.2 kPa): 987.3 ± 1.2 kg/m3
mass density (2656.6 kPa): 987.4 ± 1.2 kg/m3
mass density (2675.1 kPa): 987.4 ± 1.2 kg/m3
mass density (2688.8 kPa): 987.5 ± 1.2 kg/m3
mass density (2704.6 kPa): 987.4 ± 1.2 kg/m3
mass density (2719.9 kPa): 987.5 ± 1.2 kg/m3
mass density (2736 kPa): 987.6 ± 1.2 kg/m3
mass density (2751.8 kPa): 987.5 ± 1.2 kg/m3
mass density (2766.5 kPa): 987.5 ± 1.2 kg/m3
mass density (2800.3 kPa): 987.5 ± 1.2 kg/m3
mass density (2816.5 kPa): 987.5 ± 1.2 kg/m3
mass density (2832.1 kPa): 987.5 ± 1.2 kg/m3
mass density (2851.8 kPa): 987.5 ± 1.2 kg/m3
mass density (2867.8 kPa): 987.5 ± 1.2 kg/m3
mass density (2885.5 kPa): 987.5 ± 1.2 kg/m3
mass density (2902.1 kPa): 987.6 ± 1.2 kg/m3
mass density (2918.6 kPa): 987.6 ± 1.2 kg/m3
mass density (2935.2 kPa): 987.6 ± 1.2 kg/m3
mass density (2954.3 kPa): 987.6 ± 1.2 kg/m3
mass density (2972 kPa): 987.8 ± 1.2 kg/m3
mass density (2987.9 kPa): 987.4 ± 1.2 kg/m3
mass density (3008.9 kPa): 987.6 ± 1.2 kg/m3
mass density (3025.6 kPa): 987.6 ± 1.2 kg/m3
mass density (3043.9 kPa): 987.6 ± 1.2 kg/m3
mass density (3062.1 kPa): 987.7 ± 1.2 kg/m3
mass density (3082.8 kPa): 987.8 ± 1.2 kg/m3
mass density (3101.3 kPa): 987.7 ± 1.2 kg/m3
mass density (3118.5 kPa): 987.7 ± 1.2 kg/m3
mass density (3140.8 kPa): 987.7 ± 1.2 kg/m3
mass density (3158.5 kPa): 987.7 ± 1.2 kg/m3
mass density (3176.4 kPa): 987.8 ± 1.2 kg/m3
mass density (3198.6 kPa): 987.7 ± 1.2 kg/m3
mass density (3218.2 kPa): 987.7 ± 1.2 kg/m3
mass density (3237.6 kPa): 987.8 ± 1.2 kg/m3
mass density (3256.6 kPa): 987.8 ± 1.2 kg/m3
mass density (3279 kPa): 987.8 ± 1.2 kg/m3
mass density (3300 kPa): 987.8 ± 1.2 kg/m3
mass density (3320.3 kPa): 987.7 ± 1.2 kg/m3
mass density (3339.7 kPa): 987.8 ± 1.2 kg/m3
mass density (3362.4 kPa): 987.8 ± 1.2 kg/m3
mass density (3382.2 kPa): 987.9 ± 1.2 kg/m3
mass density (3402.9 kPa): 987.8 ± 1.2 kg/m3
mass density (3422.4 kPa): 987.9 ± 1.2 kg/m3
mass density (3448.4 kPa): 987.9 ± 1.2 kg/m3
mass density (3468.1 kPa): 987.9 ± 1.2 kg/m3
mass density (3488.6 kPa): 987.9 ± 1.2 kg/m3
mass density (3515.4 kPa): 987.8 ± 1.2 kg/m3
mass density (3535.7 kPa): 988 ± 1.2 kg/m3
mass density (3561.2 kPa): 987.9 ± 1.2 kg/m3
mass density (3584.9 kPa): 987.9 ± 1.2 kg/m3
mass density (3606.2 kPa): 987.9 ± 1.2 kg/m3
mass density (3628.7 kPa): 988 ± 1.2 kg/m3
mass density (3652.3 kPa): 987.9 ± 1.2 kg/m3
mass density (3675 kPa): 988 ± 1.2 kg/m3
mass density (3703.2 kPa): 988 ± 1.2 kg/m3
mass density (3725.9 kPa): 988 ± 1.2 kg/m3
mass density (3750.4 kPa): 988.1 ± 1.2 kg/m3
mass density (3777.7 kPa): 988.1 ± 1.2 kg/m3
mass density (3800.4 kPa): 988.1 ± 1.2 kg/m3
mass density (3825.2 kPa): 988 ± 1.2 kg/m3
mass density (3853.3 kPa): 988 ± 1.2 kg/m3
mass density (3879.1 kPa): 988 ± 1.2 kg/m3
mass density (3903.5 kPa): 988 ± 1.2 kg/m3
mass density (3929.1 kPa): 988.2 ± 1.2 kg/m3
mass density (3959.3 kPa): 988.2 ± 1.2 kg/m3
mass density (3983.7 kPa): 988.1 ± 1.2 kg/m3
mass density (4010 kPa): 988.4 ± 1.2 kg/m3
mass density (4036.2 kPa): 988.2 ± 1.2 kg/m3
mass density (4066.7 kPa): 988.2 ± 1.2 kg/m3
mass density (4093.2 kPa): 988.2 ± 1.2 kg/m3
mass density (4121.2 kPa): 988.2 ± 1.2 kg/m3
mass density (4152.6 kPa): 988.3 ± 1.2 kg/m3
mass density (4181.1 kPa): 988.3 ± 1.2 kg/m3
mass density (4209.5 kPa): 988.3 ± 1.2 kg/m3
mass density (4236.7 kPa): 988.3 ± 1.2 kg/m3
mass density (4257.5 kPa): 988.4 ± 1.2 kg/m3
mass density (4379.6 kPa): 988.4 ± 1.2 kg/m3
mass density (4380.1 kPa): 988.4 ± 1.2 kg/m3
mass density (4380.5 kPa): 988.4 ± 1.2 kg/m3
mass density (4380.8 kPa): 988.4 ± 1.2 kg/m3
mass density (4381 kPa): 988.4 ± 1.2 kg/m3
mass density (4381.5 kPa): 988.3 ± 1.2 kg/m3
mass density (4381.9 kPa): 988.6 ± 1.2 kg/m3
mass density (4382.2 kPa): 988.4 ± 1.2 kg/m3
mass density (4382.4 kPa): 988.4 ± 1.2 kg/m3
mass density (4382.6 kPa): 988.3 ± 1.2 kg/m3 and 988.5 ± 1.2 kg/m3
mass density (4382.7 kPa): 988.4 ± 1.2 kg/m3
mass density (4382.9 kPa): 988.4 ± 1.2 kg/m3 and 988.5 ± 1.2 kg/m3
mass density (4383.1 kPa): 988.4 ± 1.2 kg/m3
mass density (4383.2 kPa): 988.3 ± 1.2 kg/m3 and 988.4 ± 1.2 kg/m3
mass density (4383.4 kPa): 988.5 ± 1.2 kg/m3 and 988.4 ± 1.2 kg/m3
mass density (4383.6 kPa): 988.3 ± 1.2 kg/m3 and 988.4 ± 1.2 kg/m3 and 988.5 ± 1.2 kg/m3
mass density (4383.8 kPa): 988.5 ± 1.2 kg/m3 and 988.4 ± 1.2 kg/m3
mass density (4383.9 kPa): 988.4 ± 1.2 kg/m3 and 988.5 ± 1.2 kg/m3 and 988.3 ± 1.2 kg/m3
mass density (4384.1 kPa): 988.4 ± 1.2 kg/m3 [middle of 5 runs]
mass density (4384.3 kPa): 988.4 ± 1.2 kg/m3 and 988.5 ± 1.2 kg/m3 and 988.3 ± 1.2 kg/m3
mass density (4384.5 kPa): 988.4 ± 1.2 kg/m3 and 988.5 ± 1.2 kg/m3 and 988.3 ± 1.2 kg/m3
mass density (4384.6 kPa): 988.5 ± 1.2 kg/m3 and 988.4 ± 1.2 kg/m3
mass density (4384.8 kPa): 988.4 ± 1.2 kg/m3 and 988.3 ± 1.2 kg/m3
mass density (4385 kPa): 988.4 ± 1.2 kg/m3 and 988.3 ± 1.2 kg/m3 and 988.5 ± 1.2 kg/m3
mass density (4385.1 kPa): 988.4 ± 1.2 kg/m3 and 988.3 ± 1.2 kg/m3 and 988.5 ± 1.2 kg/m3
mass density (4385.3 kPa): 988.4 ± 1.2 kg/m3 and 988.5 ± 1.2 kg/m3
mass density (4385.4 kPa): 988.4 ± 1.2 kg/m3
mass density (4385.5 kPa): 988.4 ± 1.2 kg/m3 and 988.3 ± 1.2 kg/m3
